According to patent US20240300932A1, “N-PHENYLIMINE DERIVATIVE AND PREPARATION METHOD AND USE THEREOF” (Guizhou University, priority 2023, published 2024):

Experiments:
Experiment in all cases: Post-emergence herbicidal activity test (stem and leaf spray, pot culture)
Assay type in all cases: in vivo
Settings in all cases: 3 weeks after spraying
Setaria viridis = system: Setaria viridis
In short: (§1)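 Activity is given as a 0–5 grade of fresh weight growth control, scored three weeks after a single stem-and-leaf spray. Weeds in farmland loam were treated at the 2- to 3-leaf stage at 10, 5 and 2.5 g/mu, with methyl oleate added as synergist.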

Abutilon theophrasti = system: Abutilon theophrasti
In short: as §1

Echinochloa crusgalli = system: Echinochloa crusgalli
In short: as §1

Portulaca oleracea = system: Portulaca oleracea
In short: as §1

Amaranthus retroflexus = system: Amaranthus retroflexus
In short: as §1

Trifoliumre pensL. = system: Trifoliumre pensL.
In short: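 Pot-grown weeds in loam (pH 7), greenhouse at 20–30 °C, sprayed once post-emergence at the 2–3-leaf stage. Compound in acetone with Tween 80 plus methyl oleate oil (1.5 L/ha), applied at 10, 5 and 2.5 g/mu by spray tower. Effect scored 3 weeks after spraying, averaged over three repeats.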

| Compound | Post-emergence herbicidal activity, S. viridis (grade) (Setaria viridis; dosage 2.5 g/mu) | Post-emergence herbicidal activity, S. viridis (grade) (Setaria viridis; dosage 5 g/mu) | Post-emergence herbicidal activity, S. viridis (grade) (Setaria viridis; dosage 10 g/mu) | Post-emergence herbicidal activity, A. theophrasti (grade) (Abutilon theophrasti; dosage 2.5 g/mu) | Post-emergence herbicidal activity, A. theophrasti (grade) (Abutilon theophrasti; dosage 5 g/mu) | Post-emergence herbicidal activity, A. theophrasti (grade) (Abutilon theophrasti; dosage 10 g/mu) | Post-emergence herbicidal activity, E. crusgalli (grade) (Echinochloa crusgalli; dosage 2.5 g/mu) | Post-emergence herbicidal activity, E. crusgalli (grade) (Echinochloa crusgalli; dosage 5 g/mu) | Post-emergence herbicidal activity, E. crusgalli (grade) (Echinochloa crusgalli; dosage 10 g/mu) | Post-emergence herbicidal activity, P. oleracea (grade) (Portulaca oleracea; dosage 2.5 g/mu) | Post-emergence herbicidal activity, P. oleracea (grade) (Portulaca oleracea; dosage 5 g/mu) | Post-emergence herbicidal activity, P. oleracea (grade) (Portulaca oleracea; dosage 10 g/mu) | Post-emergence herbicidal activity, A. retroflexus (grade) (Amaranthus retroflexus; dosage 2.5 g/mu) | Post-emergence herbicidal activity, A. retroflexus (grade) (Amaranthus retroflexus; dosage 5 g/mu) | Post-emergence herbicidal activity, A. retroflexus (grade) (Amaranthus retroflexus; dosage 10 g/mu) | Post-emergence herbicidal activity, Trifoliumre pensL. (grade) (Trifoliumre pensL.; dosage 2.5 g/mu) | Post-emergence herbicidal activity, Trifoliumre pensL. (grade) (Trifoliumre pensL.; dosage 5 g/mu) | Post-emergence herbicidal activity, Trifoliumre pensL. (grade) (Trifoliumre pensL.; dosage 10 g/mu) |
| --- | --- | --- | --- | --- | --- | --- | --- | --- | --- | --- | --- | --- | --- | --- | --- | --- | --- | --- |
| CC(C)(C)c1ccc(-c2noc(COc3cc(N4C(=O)C5=C(CCCC5)C4=O)c(F)cc3Cl)n2)cc1 [Compound A26] | 2 (Grade 2: the growth control rate is greater than or equal to 20% and less than 40%) | 3 (Grade 3: the growth control rate is greater than or equal to 40% and less than 60%) | 4 (Grade 4: the growth control rate is greater than or equal to 60% and less than 85%) | 5 (Grade 5: the growth control rate is greater than or equal to 85%) | 5 (Grade 5: the growth control rate is greater than or equal to 85%) | 5 (Grade 5: the growth control rate is greater than or equal to 85%) | 1 (Grade 1: the growth control rate is greater than or equal to 5% and less than 20%) | 2 (Grade 2: the growth control rate is greater than or equal to 20% and less than 40%) | 3 (Grade 3: the growth control rate is greater than or equal to 40% and less than 60%) | 4 (Grade 4: the growth control rate is greater than or equal to 60% and less than 85%) | 5 (Grade 5: the growth control rate is greater than or equal to 85%) | 5 (Grade 5: the growth control rate is greater than or equal to 85%) | 5 (Grade 5: the growth control rate is greater than or equal to 85%) | 5 (Grade 5: the growth control rate is greater than or equal to 85%) | 5 (Grade 5: the growth control rate is greater than or equal to 85%) | 4 (Grade 4: the growth control rate is greater than or equal to 60% and less than 85%) | 5 (Grade 5: the growth control rate is greater than or equal to 85%) | 5 (Grade 5: the growth control rate is greater than or equal to 85%) |
| O=C1C2=C(CCCC2)C(=O)N1c1cc(OCc2nnc(-c3ccccc3I)o2)c(Cl)cc1F [Compound B7] | 2 (Grade 2: the growth control rate is greater than or equal to 20% and less than 40%) | 3 (Grade 3: the growth control rate is greater than or equal to 40% and less than 60%) | 4 (Grade 4: the growth control rate is greater than or equal to 60% and less than 85%) | 5 (Grade 5: the growth control rate is greater than or equal to 85%) | 5 (Grade 5: the growth control rate is greater than or equal to 85%) | 5 (Grade 5: the growth control rate is greater than or equal to 85%) | 1 (Grade 1: the growth control rate is greater than or equal to 5% and less than 20%) | 2 (Grade 2: the growth control rate is greater than or equal to 20% and less than 40%) | 3 (Grade 3: the growth control rate is greater than or equal to 40% and less than 60%) | 5 (Grade 5: the growth control rate is greater than or equal to 85%) | 5 (Grade 5: the growth control rate is greater than or equal to 85%) | 5 (Grade 5: the growth control rate is greater than or equal to 85%) | 5 (Grade 5: the growth control rate is greater than or equal to 85%) | 5 (Grade 5: the growth control rate is greater than or equal to 85%) | 5 (Grade 5: the growth control rate is greater than or equal to 85%) | 5 (Grade 5: the growth control rate is greater than or equal to 85%) | 5 (Grade 5: the growth control rate is greater than or equal to 85%) | 5 (Grade 5: the growth control rate is greater than or equal to 85%) |
| O=C1C2=C(CCCC2)C(=O)N1c1cc(OCc2nnc(-c3ccc(F)cc3)o2)c(Cl)cc1F [Compound B14] | 2 (Grade 2: the growth control rate is greater than or equal to 20% and less than 40%) | 3 (Grade 3: the growth control rate is greater than or equal to 40% and less than 60%) | 4 (Grade 4: the growth control rate is greater than or equal to 60% and less than 85%) | 4 (Grade 4: the growth control rate is greater than or equal to 60% and less than 85%) | 5 (Grade 5: the growth control rate is greater than or equal to 85%) | 5 (Grade 5: the growth control rate is greater than or equal to 85%) | 1 (Grade 1: the growth control rate is greater than or equal to 5% and less than 20%) | 2 (Grade 2: the growth control rate is greater than or equal to 20% and less than 40%) | 3 (Grade 3: the growth control rate is greater than or equal to 40% and less than 60%) | 4 (Grade 4: the growth control rate is greater than or equal to 60% and less than 85%) | 5 (Grade 5: the growth control rate is greater than or equal to 85%) | 5 (Grade 5: the growth control rate is greater than or equal to 85%) | 5 (Grade 5: the growth control rate is greater than or equal to 85%) | 5 (Grade 5: the growth control rate is greater than or equal to 85%) | 5 (Grade 5: the growth control rate is greater than or equal to 85%) | 5 (Grade 5: the growth control rate is greater than or equal to 85%) | 5 (Grade 5: the growth control rate is greater than or equal to 85%) | 5 (Grade 5: the growth control rate is greater than or equal to 85%) |
| O=C1C2=C(CCCC2)C(=O)N1c1cc(OCc2nc(-c3ccccc3Cl)no2)c(Cl)cc1F [Compound A8] | 2 (Grade 2: the growth control rate is greater than or equal to 20% and less than 40%) | 3 (Grade 3: the growth control rate is greater than or equal to 40% and less than 60%) | 4 (Grade 4: the growth control rate is greater than or equal to 60% and less than 85%) | 5 (Grade 5: the growth control rate is greater than or equal to 85%) | 5 (Grade 5: the growth control rate is greater than or equal to 85%) | 5 (Grade 5: the growth control rate is greater than or equal to 85%) | 1 (Grade 1: the growth control rate is greater than or equal to 5% and less than 20%) | 2 (Grade 2: the growth control rate is greater than or equal to 20% and less than 40%) | 3 (Grade 3: the growth control rate is greater than or equal to 40% and less than 60%) | 4 (Grade 4: the growth control rate is greater than or equal to 60% and less than 85%) | 5 (Grade 5: the growth control rate is greater than or equal to 85%) | 5 (Grade 5: the growth control rate is greater than or equal to 85%) | 5 (Grade 5: the growth control rate is greater than or equal to 85%) | 5 (Grade 5: the growth control rate is greater than or equal to 85%) | 5 (Grade 5: the growth control rate is greater than or equal to 85%) | 4 (Grade 4: the growth control rate is greater than or equal to 60% and less than 85%) | 5 (Grade 5: the growth control rate is greater than or equal to 85%) | 5 (Grade 5: the growth control rate is greater than or equal to 85%) |
